Assay results as given in patent publication US20240226115A1, “AXL INHIBITOR COMPOUNDS” (ARCUS BIOSCIENCES, INC., priority 2021, published 2024).

Molecular target: T1, recombinant human TYRO3 (Homo sapiens, UniProt Q06418)
T1 construct: purchased Invitrogen
T1 sequence (Q06418 41-890): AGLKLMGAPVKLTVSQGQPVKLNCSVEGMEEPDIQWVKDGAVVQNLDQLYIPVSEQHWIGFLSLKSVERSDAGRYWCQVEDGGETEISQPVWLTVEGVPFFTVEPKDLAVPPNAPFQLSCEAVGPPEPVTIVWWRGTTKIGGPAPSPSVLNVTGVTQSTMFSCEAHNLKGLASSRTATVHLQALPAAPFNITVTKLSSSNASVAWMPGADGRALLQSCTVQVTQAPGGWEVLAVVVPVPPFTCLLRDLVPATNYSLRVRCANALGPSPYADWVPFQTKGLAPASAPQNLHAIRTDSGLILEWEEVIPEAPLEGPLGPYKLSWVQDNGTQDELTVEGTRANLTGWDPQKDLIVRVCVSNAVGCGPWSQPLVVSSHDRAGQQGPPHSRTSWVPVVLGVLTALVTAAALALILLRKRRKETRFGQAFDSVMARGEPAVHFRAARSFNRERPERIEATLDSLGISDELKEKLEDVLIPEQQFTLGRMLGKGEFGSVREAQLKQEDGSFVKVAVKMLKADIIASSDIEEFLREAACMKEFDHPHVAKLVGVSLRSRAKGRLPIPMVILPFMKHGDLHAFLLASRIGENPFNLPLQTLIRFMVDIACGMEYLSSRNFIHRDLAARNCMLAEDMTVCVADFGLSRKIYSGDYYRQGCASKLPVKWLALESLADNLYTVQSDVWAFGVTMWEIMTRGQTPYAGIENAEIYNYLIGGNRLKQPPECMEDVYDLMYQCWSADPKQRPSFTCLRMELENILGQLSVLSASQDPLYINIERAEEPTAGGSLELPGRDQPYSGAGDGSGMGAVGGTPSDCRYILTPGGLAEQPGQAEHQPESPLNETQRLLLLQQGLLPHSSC
Assay: HTRF KinEASE-TK biochemical potency, TYRO3
Details: 1 nM TYRO3, 700 μM ATP
In short: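 Enzyme preincubated with compound 1 h at RT; final 5 nM AXL or 1 nM TYRO3/MER, 800 nM TK substrate-biotin, 700 μM ATP, HEPES pH 7.4, MgCl2, 1% DMSO, 2 h at RT. HTRF 665/620 ratio read after streptavidin-XL665/cryptate antibody detection; percent activity relative to DMSO and pre-stopped controls.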

Compound | IC50
O=C1NCCOc2cc(-c3n[nH]c4ncc(-c5ccc6c(n5)CCC(N5CCCC5)CC6)cc34)ccc21 (stereo not shown) [Example 63, 8-{5-[7-(Pyrrolidin-1-yl)-5H,6H,7H,8H,9H-cyclohepta[b]pyridin-2-yl]-1H-pyrazolo[3,4-b]pyridin-3-yl}-2,3,4,5-tetrahydro-1,4-benzoxazepin-5-one] | < 0.1 µM
Cc1cc2c(cc1-c1cnc3[nH]nc(-c4ccc5c(c4)OCCNC5=O)c3c1)CCC(N1CCC[C@H]1C)CC2 (stereo partly drawn) [Example 64, 8-(5-{3-Methyl-7-[(2R)-2-methylpyrrolidin-1-yl]-6,7,8,9-tetrahydro-5H-benzo[7]annulen-2-yl}-1H-pyrazolo[3,4-b]pyridin-3-yl)-2,3,4,5-tetrahydro-1,4-benzoxazepin-5-one] | < 0.1 µM
C[C@@H]1CCCN1C1CCc2cc(-c3cnc4[nH]nc(-c5ccc6c(c5)OCCNC6=O)c4c3)cc(Cl)c2CC1 (stereo partly drawn) [Example 65, 8-(5-{4-Chloro-7-[(2R)-2-methylpyrrolidin-1-yl]-6,7,8,9-tetrahydro-5H-benzo[7]annulen-2-yl}-1H-pyrazolo[3,4-b]pyridin-3-yl)-2,3,4,5-tetrahydro-1,4-benzoxazepin-5-one] | < 0.1 µM
C[C@@H]1CCCN1C1CCc2ccc(-c3cnc4[nH]nc(-c5ccc6c(c5)OCCNS6(=O)=O)c4c3)cc2CC1 (stereo partly drawn) [Example 66, 7-(5-{7-[(2R)-2-Methylpyrrolidin-1-yl]-6,7,8,9-tetrahydro-5H-benzo[7]annulen-2-yl}-1H-pyrazolo[3,4-b]pyridin-3-yl)-3,4-dihydro-2H-5,12,2-benzoxathiazepine-1,1-dione] | 0.1 to 1 µM
